“Also recorded” adds a separate entry of the source.
Columns and labels:
[1] = tested on: Barrett's stem cells (BE stem cells, Krt7+); assay: High throughput chemical screening and dose response on GFP-labeled stem cells; assay type: cell-based, human; conditions: for lethality towards Barrett's stem cells: screened in the background of 1 μM Ponatinib
[2] = tested on: esophageal squamous stem cells (ESO stem cells, Krt5+); assay: as above; assay type: cell-based, human; conditions: for effect on Esophageal stem cells: in the presence of 1 μM Ponatinib
human GSK3α = human GSK3α (Homo sapiens, UniProt P49840); conditions: cited from earlier work
Chain of human GSK3α (P49840 whole entry): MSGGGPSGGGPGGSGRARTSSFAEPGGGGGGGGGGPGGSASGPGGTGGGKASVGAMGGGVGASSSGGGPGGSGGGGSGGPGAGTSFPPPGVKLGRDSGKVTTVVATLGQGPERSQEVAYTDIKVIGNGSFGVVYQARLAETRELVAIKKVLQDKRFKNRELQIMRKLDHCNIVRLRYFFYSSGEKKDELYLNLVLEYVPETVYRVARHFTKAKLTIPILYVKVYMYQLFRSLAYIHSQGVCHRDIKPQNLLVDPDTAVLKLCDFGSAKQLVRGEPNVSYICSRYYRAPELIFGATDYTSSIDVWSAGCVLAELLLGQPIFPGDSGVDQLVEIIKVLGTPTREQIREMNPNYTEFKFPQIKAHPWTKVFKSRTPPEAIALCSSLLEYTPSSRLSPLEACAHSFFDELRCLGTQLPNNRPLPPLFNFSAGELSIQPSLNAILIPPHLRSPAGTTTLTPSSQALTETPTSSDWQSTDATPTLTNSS

[3] = target: ERBB2 phosphorylation (T798I) (Homo sapiens, UniProt P04626, T798I); conditions: cited from earlier work
Chain of ERBB2 phosphorylation (T798I) (P04626 23-1255 T798I): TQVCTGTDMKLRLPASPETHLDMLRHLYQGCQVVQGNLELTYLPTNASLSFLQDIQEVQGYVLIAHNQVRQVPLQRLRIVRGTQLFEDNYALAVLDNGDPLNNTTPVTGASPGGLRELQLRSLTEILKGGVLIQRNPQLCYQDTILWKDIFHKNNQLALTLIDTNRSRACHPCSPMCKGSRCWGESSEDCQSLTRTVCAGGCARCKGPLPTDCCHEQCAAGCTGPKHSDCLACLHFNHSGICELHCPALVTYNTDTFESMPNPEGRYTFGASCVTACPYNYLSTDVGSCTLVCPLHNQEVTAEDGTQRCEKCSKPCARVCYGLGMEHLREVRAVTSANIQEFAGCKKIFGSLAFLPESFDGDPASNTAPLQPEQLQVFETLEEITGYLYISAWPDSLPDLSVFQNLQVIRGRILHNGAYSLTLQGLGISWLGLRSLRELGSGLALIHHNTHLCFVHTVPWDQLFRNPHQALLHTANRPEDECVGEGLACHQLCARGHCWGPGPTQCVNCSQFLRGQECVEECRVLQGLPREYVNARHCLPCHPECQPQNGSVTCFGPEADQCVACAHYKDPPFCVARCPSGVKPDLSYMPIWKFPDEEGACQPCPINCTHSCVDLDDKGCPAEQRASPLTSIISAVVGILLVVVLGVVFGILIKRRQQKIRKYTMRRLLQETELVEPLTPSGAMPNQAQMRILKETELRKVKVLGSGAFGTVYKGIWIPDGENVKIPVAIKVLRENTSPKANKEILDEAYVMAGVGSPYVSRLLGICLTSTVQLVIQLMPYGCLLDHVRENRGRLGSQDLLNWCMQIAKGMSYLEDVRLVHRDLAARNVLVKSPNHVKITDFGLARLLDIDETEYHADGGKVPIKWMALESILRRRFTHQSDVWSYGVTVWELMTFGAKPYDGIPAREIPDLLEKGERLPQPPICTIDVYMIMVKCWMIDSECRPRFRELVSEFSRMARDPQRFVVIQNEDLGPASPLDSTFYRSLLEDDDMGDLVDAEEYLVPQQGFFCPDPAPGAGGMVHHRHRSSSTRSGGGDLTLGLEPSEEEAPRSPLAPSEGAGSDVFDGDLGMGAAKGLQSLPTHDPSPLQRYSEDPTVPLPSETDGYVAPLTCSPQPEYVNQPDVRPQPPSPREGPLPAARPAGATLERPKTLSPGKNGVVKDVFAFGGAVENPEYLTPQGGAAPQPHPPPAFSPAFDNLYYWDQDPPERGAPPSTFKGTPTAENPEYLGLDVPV

3T3-J2 feeder cells = assay: Lethality of feeder cells during treatment; assay type: cell-based; conditions: combination with Ponatinib
Method: It was next hypothesized that one chemical in our libraries could function with Ponatinib in a synergistic manner to specifically eradicate Barrett's stem cells while protecting and promoting esophageal stem cells. The same libraries were screened in the background of 1 μM Ponatinib. […] Among them, Adefovir Dipivoxil is a FDA approved drug, CEP-18770 and Qizartinib are in clinical trials. […] Their differential effects on Barrett's stem cells and Esophageal stem cells were validated in a dosage dependent manner (FIG. 2C; FIG. 3F).
The GFP-tagged cell lines will be seeded on multiple 384 well plates (Griener Bio-One, USA) (varying according to number of compounds in a library) with a feeder layer of irradiated 3T3-J2 fibroblast cells. The stem cell will be allowed to grow until they divide to become 4-5 cells within a colony. Afterwards they will be transported for treatment with selected chemical library (1 μM) to High Throughput Research and Screening Center at Institute of Biosciences and Technology (Houston, Tex.), Texas A&M University. Positive and negative control lanes will be allocated within each plate. […] The cells will be allowed to grow for 6 days at 37° C., 7.5% CO2 incubator after treatment. After the cells in the control lanes are at good confluency, the cells will be prepared for imaging. […]

[4] = tested on: taxol-resistant ovarian stem cells; assay: Killing of taxol-resistant ovarian stem cells in vitro; assay type: cell-based; conditions: combination with ponatinib
[5] = tested on: taxol-resistant ovarian stem cells; assay: Taxol-resistant ovarian stem cell xenograft animal models; assay type: in vivo; conditions: combination with ponatinib
[6] = tested on: Barrett's stem cells and Esophageal stem cells; assay: Co-culture of Barrett's stem cell lines and Esophageal stem cells; assay type: cell-based, human; conditions: in the presence of Ponatinib
[7] = tested on: Barrett's stem cells (GFP) and esophageal squamous stem cells (RFP); assay: 3D air-liquid interface (ALI) co-culture of Barrett's and esophageal stem cells; assay type: cell-based, human; conditions: in the presence of Ponatinib
Method: A 3D culture model was generated to mimic Barrett's Esophagus in vitro. The esophageal squamous stem cells and Barrett's stem cells were co-cultured in the transwell insert. Following the creation of air-liquid interface, it was observed that the BE islands located among well-differentiated squamous epithelium that well recapitulated the histology of human BE in the patient. Given the similarity of this artificial model and human pathology, the hits were tested in this system to further validate them. […] The esophageal squamous stem cells were labeled with red fluorescent protein (RFP) while Barrett's stem cells were labeled with green fluorescent protein (GFP). Without the treatment, it was observed that a mixture of GFP and RFP labeled cells in culture.

[8] = tested on: Barrett's stem cells and esophageal squamous stem cells xenograft; assay: Mouse xenograft of co-injected esophageal squamous and GFP labeled Barrett's stem cells; assay type: in vivo, mice
Source text: The effect of these chemicals on BE in a xenograft model was further examined. The esophageal squamous stem cells and GFP labeled Barrett's stem cells were mixed and co-injected into the immunodeficient mice. […] Two weeks following the treatment, the xenografts were collected and examined through histology analysis and clonogenic analysis.

[9] = tested on: Barrett's, dysplasia or EAC stem cells; assay: Co-culture of esophageal stem cells with Barrett's, dysplasia or EAC stem cells; assay type: cell-based, human; conditions: together with 1 μM Ponatinib
Method: FIG. 6. Patient-matched BE, dysplasia and cancer stem cells (Krt7+, Green) were mixed with Krt5+ (red) ESO cells and co-cultured for five days and then treated with seven selected drugs together with 1 μM Ponatinib.
BE has been known to be the precursor of the dysplastic and cancerous lesions of EAC. […] Moreover, PCA analysis of Barrett's stem cells derived from 12 patients together with dysplasia, cancer and Esophageal squamous stem cells confirmed that the stem cells of dysplasia and cancer shared very similar gene expression with Barrett's stem cells (FIGS. 4A & B). […] The effects of the eight drug hits in combination with Ponatinib were tested in the cell culture of co-seeding esophageal stem cells and Barrett's, dysplasia or EAC stem cells. […] Given these three entities always co-exist in patients with EAC, our strategies of eradicating all of them could help to eliminate the chance of recurrence of EAC patients drastically.

[10] = tested on: BE, dysplasia and cancer stem cells; assay: 3D (ALI) culture of patient-matched BE, dysplasia and cancer stem cells; assay type: cell-based, human; conditions: combined with Ponatinib
Source text: FIG. 5B. Left, Scanned images of top view of BE, dysplasia and cancer stem cells (green) generated ALI structures in the presence of absence of drug combinations.

[11] = tested on: dysplasia and cancer stem cells; assay: Mice xenografted with dysplasia and cancer stem cells; assay type: in vivo; conditions: with Ponatinib
Source text: FIG. 5C. Schematic of in vivo validation of drug combinations in mice xenografted with dysplasia and cancer stem cells. Following the treatment, the xenografts were processed for histological analysis or clonogenic assays to detect the existence of stem cells.

[12] = tested on: chymotrypsin-like activity of proteasome; conditions: cited from earlier work
[13] = tested on: tryptic and peptidylglutamyl activities of the proteosome; conditions: cited from earlier work
[14] = tested on: chymotrypsin-like activity of the proteasome; conditions: cellular; cited from earlier work
STAT1 = target: T1, STAT1 (Homo sapiens, UniProt P42224); conditions: cited from earlier work
T1 sequence (P42224 1-750): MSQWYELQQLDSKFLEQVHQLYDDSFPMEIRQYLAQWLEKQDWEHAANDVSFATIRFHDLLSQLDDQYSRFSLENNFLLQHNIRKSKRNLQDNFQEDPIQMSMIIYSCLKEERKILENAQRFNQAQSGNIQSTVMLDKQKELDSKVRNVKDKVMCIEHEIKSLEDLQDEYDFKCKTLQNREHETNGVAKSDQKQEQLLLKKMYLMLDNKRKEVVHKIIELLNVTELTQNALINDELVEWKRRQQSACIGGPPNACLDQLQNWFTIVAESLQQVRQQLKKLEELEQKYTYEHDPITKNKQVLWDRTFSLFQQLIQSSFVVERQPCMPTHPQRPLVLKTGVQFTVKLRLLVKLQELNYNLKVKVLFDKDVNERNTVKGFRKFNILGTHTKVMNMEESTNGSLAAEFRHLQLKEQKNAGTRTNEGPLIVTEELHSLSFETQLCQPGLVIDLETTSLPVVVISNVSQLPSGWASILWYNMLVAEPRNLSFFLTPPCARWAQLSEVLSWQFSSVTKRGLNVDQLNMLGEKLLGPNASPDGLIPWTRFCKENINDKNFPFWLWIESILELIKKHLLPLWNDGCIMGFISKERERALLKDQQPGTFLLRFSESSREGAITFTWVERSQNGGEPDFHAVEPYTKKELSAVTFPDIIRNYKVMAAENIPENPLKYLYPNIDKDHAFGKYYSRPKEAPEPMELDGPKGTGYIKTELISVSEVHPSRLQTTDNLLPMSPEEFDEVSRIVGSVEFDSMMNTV

CC(C)(C)c1cc(NC(=O)Nc2ccc(-c3cn4c(n3)sc3cc(OCCN5CCOCC5)ccc34)cc2)no1 [Quizartinib]
lethality towards Barrett's stem cells [1]: displayed the lethality
effect on Esophageal stem cells [2]: without affecting

N#Cc1ccc2[nH]c(O)c(-c3ccc(CN4CCOCC4)cn3)c2c1 [AZD1080]
lethality towards Barrett's stem cells [1]: displayed the lethality
differential effects on BE and ESO stem cells, validation over a range of dosages ([1]; together with 1 μM Ponatinib): appeared to be the false positive hit in the screening
effect on Esophageal stem cells [2]: without affecting
Ki (human GSK3α): 6.9 nM

C=CC(=O)Nc1cccc(Sc2nc(Nc3ccc(N4CCN(C)CC4)cc3)ncc2Cl)c1 [WZ8040]
lethality towards Barrett's stem cells [1]: displayed the lethality
effect on Esophageal stem cells [2]: without affecting
inhibition of ERBB2 phosphorylation (T798I) [3]: does not inhibit

Cc1ccc(C(=O)Nc2ccc(CN3CCN(C)CC3)c(C(F)(F)F)c2)cc1C#Cc1cnc2cccnn12 [Ponatinib]
survival of Barrett's stem cells ([1]; single agent screening): slightly decreasing the survival
proliferation of esophageal stem cells ([2]; single agent screening): promoted the proliferation; also recorded: significantly increase the proliferation

CC(C)(C)C(=O)OCOP(=O)(COCCn1cnc2c(N)ncnc21)OCOC(=O)C(C)(C)C [Adefovir Dipivoxil]
lethality towards Barrett's stem cells [1]: displayed the lethality
effect on Esophageal stem cells [2]: without affecting

CO[C@H]1CC[C@@H](O[C@H]2C[C@H]([C@]3(C)CC[C@]4(C[C@H](O)[C@@H](C)[C@@H]([C@@H](C)/C=C(\C)C(=O)[C@H](C)C[C@H](C)C(=O)O)O4)O3)O[C@]3(O[C@@H]([C@H]4O[C@@](O)(CO)[C@H](C)C[C@@H]4C)C[C@@H]3C)[C@@H]2C)O[C@H]1C [Nanchangmycin]
lethality towards Barrett's stem cells [1]: displayed the lethality
effect on Esophageal stem cells [2]: without affecting
lethality of 3T3-J2 feeder cells during the treatment (3T3-J2 feeder cells): high lethality

CC(=O)O[C@H]1C(=O)[C@@]2(C)[C@H]([C@H](OC(=O)c3ccccc3)[C@]3(O)C[C@H](OC(=O)[C@H](O)[C@@H](NC(=O)c4ccccc4)c4ccccc4)C(C)=C1C3(C)C)[C@]1(OC(C)=O)CO[C@@H]1C[C@@H]2O [taxol]
killing taxol-resistant ovarian stem cells [4]: synergy
tumor volume [5]: reducing tumor volume

CC(C)C[C@H](NC(=O)[C@@H](NC(=O)c1cccc(-c2ccccc2)n1)[C@@H](C)O)B(O)O [CEP-18770, [(1R)-1-[[(2S,3R)-3-hydroxy-2-[(6-phenylpyridine-2-carbonyl)amino]butanoyl]amino]-3-methylbutyl]boronic acid]
differential of dose-response curves, BE stem cells versus normal esophageal stem cells ([1]; in the background of a fixed concentration of Ponatinib): ~1,000 fold
lethality towards Barrett's stem cells [1]: displayed the lethality
effect on Esophageal stem cells [2]: without affecting
effect on Esophageal squamous stem cells in co-culture [6]: promoting
lethality to Barrett's stem cells in co-culture ([6]; nine Barrett's stem cell lines): uniform lethality to all Barrett's stem cells
cross sections of the ALI structures [7]: intact esophageal squamous epithelium without any existence of Barrett's epithelium
GFP labeled Barrett's stem cells in 3D ALI co-culture ([7]; eight Barrett's stem cell lines): disappearance
BE stem cells in treated structures (histological analysis) ([8]; NSG mice, with Ponatinib): not detected
Krt5+ ESO structures in treated samples ([8]; NSG mice, with Ponatinib): visibly more robust
clonogenic Barrett's stem cells from xenografts ([8]; combination with Ponatinib, clonogenic analysis): lack of clonogenic Barrett's stem cells
Barrett's structures in xenografts (histology) ([8]; combination with Ponatinib, intraperitoneally, two weeks following the treatment): total loss
growth of BE, dysplasia and cancer stem cells in co-culture with ESO cells [9]: most effective
eradication of BE, dysplasia and cancer stem cells in 3D (ALI) culture [10]: eradicate
Dysplastic structures (Krt7+/Ki67+) in xenografts [11]: diminished
eradication of precancerous, dysplastic and cancerous stem cells in mouse xenograft models [11]: eradicate
stem cells cloned from treated dysplastic structures (rhodamine staining) [11]: not cloned
IC50 [12]: 3.8 nM
inhibition of the tryptic and peptidylglutamyl activities of the proteosome [13]: only marginal inhibition
IC50 [14]: 3.8 nM

O=[N+]([O-])c1ccc2c(c1)S(=O)(=O)C=C2 [Stattic]
lethality towards Barrett's stem cells [1]: displayed the lethality
effect on Esophageal stem cells [2]: without affecting
selectivity over STAT1 (STAT1): highly selectivity

Source: patent US20220202792A1, “METHODS AND COMPOSITIONS FOR TREATING CHRONIC INFLAMMATORY INJURY, METAPLASIA, DYSPLASIA AND CANCERS OF EPITHELIAL TISSUES” (University of Houston System, priority 2019, published 2022)
